In patent US20180318311A1, “TRICYCLIC 2-QUINOLINONES AS ANTIBACTERIALS” (priority 2017, published 2018):
Values after ≈ are worked out from the molar mass of the structure shown. Like-named read-outs stand apart in the source and are kept apart here.

Key:
Assay type in all cases: cell-based
[1] = tested on: S. aureus ATCC 49951 (NB01006); assay: MIC by broth microdilution, S. aureus NB01006; conditions: Staphylococcus aureus, ATCC49951, CAMHB, 35° C., 20 hours, read-out: Antibacterial activity (MIC) NB01006
Procedure: (§1) Bacterial isolates were cultivated from −80° C. frozen stocks by overnight passages at 35° C. in ambient air on Mueller-Hinton agar plates (MHA, Becton Dickinson, Franklin Lakes, NB) with the exception of S. pneumoniae which was grown overnight at 35° C. in the presence of 5% CO2 on blood agar plates (tryptic soy agar with 5% sheep blood (Thermo Scientific, Waltham, Mass.) . The following quality control and wild type strains were obtained from the American Type Culture Collection (ATCC; Rockville, Md.) and are coded in the Novartis strain collection as indicated: E. coli ATCC 25922 (NB27001), E. faecalis ATCC 29212 (NB04001), S. aureus ATCC 49951 (NB01006) and S. pneumoniae ATCC […] (NB07001). […] P. aeruginosa NB52019, obtained from Queen's University (Kingston, Ontario, Canada), is the wild-type PAO1 strain.
(§2) Minimal Inhibitory Concentrations (MIC) were determined by the broth microdilution method in accordance with Clinical and Laboratories Institute (CLSI) guidelines. In brief, fresh bacterial overnight cultures were re-suspended in sterile saline, adjusted to a 0.5 McFarland turbidity standard and then diluted to yield a final inoculum of approximately 5×10^5 colony-forming units (CFU)/mL. All bacterial suspensions were prepared in cation adjusted Mueller-Hinton Broth (CAMHB; Becton Dickinson, Franklin Lakes, N.J.;) with the exception of S. pneumoniae which was prepared in CAMHB supplemented with 5% lysed horse blood (Hardy Diagnostics, Santa Maria, Calif.). Two-fold serial dilutions of compounds were prepared in 100% dimethyl sulfoxide (DMSO) at 100-fold the highest final assay concentration; the resulting dilution series of compounds were diluted 1:10 with sterile water. Ten μL of the drug dilution series in 10% DMSO was transferred to microtiter wells and 90 μL of bacterial suspension was inoculated into the wells. All inoculated microdilution trays were incubated in ambient air at 35° C. for 20 hours. Following incubation, assay plates were read in a microtiter plate reader at 600 nm and visually inspected to confirm the MIC endpoint well with the OD value. The lowest concentration of the compound that prevented visible growth was recorded as the MIC (in μg/mL).

[2] = tested on: E. coli ATCC 25922 (NB27001); assay: MIC by broth microdilution, E. coli NB27001; conditions: Escherichia coli, ATCC25922, CAMHB, 35° C., 20 hours, read-out: Antibacterial activity (MIC) NB27001
Procedure: as §1, §2

[3] = tested on: S. aureus NB01006-AVR005, gyrA (S84L), grlA (580F) and grlB (E471K); assay: microbe, parasite or virus in culture; conditions: Staphylococcus aureus, 20 h, read-out: Antibacterial activity (MIC) NB01006-AVR005
Procedure: as §1, §2

[4] = tested on: P. aeruginosa NB52019, wild-type PAO1 strain; assay: MIC by broth microdilution, P. aeruginosa NB52019; conditions: Pseudomonas aeruginosa, CAMHB, 35° C., 20 hours, read-out: Antibacterial activity (MIC) NB52019
Procedure: as §1, §2

[5] = tested on: S. pneumoniae ATCC 25922 (NB07001); assay: MIC by broth microdilution, S. pneumoniae NB07001; conditions: Streptococcus pneumoniae, read-out: Antibacterial activity (MIC) NB07001
Procedure: as §1, §2

[6] = tested on: E. faecalis ATCC 29212 (NB04001); assay: MIC by broth microdilution, E. faecalis NB04001; conditions: Enterococcus faecalis, ATCC29212, CAMHB, 35° C., 20 hours, read-out: Antibacterial activity (MIC) NB04001
Procedure: as §1, §2

[7] = tested on: S. aureus NB01080 fluoroquinolone-resistant clinical isolate; assay: MIC by broth microdilution, S. aureus NB01080; conditions: Staphylococcus aureus, CAMHB, 35° C., 20 hours, read-out: Antibacterial activity (MIC) NB01080
Procedure: as §1, §2

[8] = ATCC25922, S. pneumoniae, CAMHB supplemented with 5% lysed horse blood, 35° C., 20 hours

| Structure (SMILES) | MIC [1] [µg/mL] | MIC [2] [µg/mL] | MIC [3] [µg/mL] | MIC [4] [µg/mL] | MIC ([5]; ATCC25922, 20 h) [µg/mL] | MIC [6] [µg/mL] | MIC [7] [µg/mL] | MIC [5, 8] [µg/mL] |
| --- | --- | --- | --- | --- | --- | --- | --- | --- |
| C[C@H]1COc2c(N3CC(N)C(CO)C3)c(F)cc3cc(C(=O)O)c(=O)n1c23 (single isomer, unassigned) [Example 1.77] | 1 to 32 (≈ 2.65 to 84.8 µM) | > 32 | > 32 | > 32 | 1 to 32 (≈ 2.65 to 84.8 µM) | > 32 | > 32 |  |
| C[C@H]1COc2c(N3CC(CO)C(N(C)C)C3)c(F)cc3cc(C(=O)O)c(=O)n1c23 (single isomer, unassigned) [Example 1.78] | 1 to 32 (≈ 2.47 to 78.9 µM) | 1 to 32 (≈ 2.47 to 78.9 µM) | > 32 | > 32 | 1 to 32 (≈ 2.47 to 78.9 µM) | > 32 | > 32 |  |
| CC1CCc2c(N3CC[C@@H](C4(N)CC4)C3)c(F)cc3cc(C(=O)O)c(=O)n1c23.O=C(O)C(F)(F)F (single isomer, unassigned) [Example 8] | < 1 | 1 to 32 | < 1 | 1 to 32 |  | < 1 | < 1 | < 1 |
| CC1Cc2c(N3CC[C@@H](C4(N)CC4)C3)c(F)cc3cc(C(=O)O)c(=O)n1c23.Cl (single isomer, unassigned) [Example 9.1] | < 1 | 1 to 32 | 1 to 32 | > 32 |  | < 1 | < 1 | < 1 |
| C[C@H]1COc2c(N3CCC4(CC4N)C3)c(F)c(F)c3cc(C(=O)O)c(=O)n1c23 (single isomer, unassigned) [Example 13.4] | < 1 | < 1 | 1 to 32 (≈ 2.56 to 81.8 µM) | 1 to 32 (≈ 2.56 to 81.8 µM) | < 1 | < 1 | 1 to 32 (≈ 2.56 to 81.8 µM) |  |
| C[C@H]1COc2c(N3CC4CC4(N)C3)c(F)c(F)c3cc(C(=O)O)c(=O)n1c23 (single isomer, unassigned) [Example 13.6] | < 1 | 1 to 32 (≈ 2.65 to 84.8 µM) | 1 to 32 (≈ 2.65 to 84.8 µM) | > 32 | < 1 | < 1 | < 1 |  |
| C[C@H]1COc2c(N3CC4C(N)C4C3)c(F)c(F)c3cc(C(=O)O)c(=O)n1c23 (single isomer, unassigned) [Example 13.7] | < 1 | < 1 | 1 to 32 (≈ 2.65 to 84.8 µM) | 1 to 32 (≈ 2.65 to 84.8 µM) | < 1 | < 1 | 1 to 32 (≈ 2.65 to 84.8 µM) |  |
| C[C@H]1COc2c(N3CC[C@@H](C4(N)CC4)C3)c(F)cc3cc(C(=O)O)c(=O)n1c23.Cl [Example 1.1, (S)-10-((R)-3-(1-aminocyclopropyl)pyrrolidin-1-yl)-9-fluoro-3-methyl-5-oxo-2,3-dihydro-5H-[1,4]oxazino[2,3,4-ij]quinoline-6-carboxylic acid hydrochloride salt] | < 1 | 1 to 32 | 1 to 32 | > 32 |  | < 1 | < 1 | < 1 |
| C[C@H]1COc2c(N3CC[C@H](N)C3)c(F)cc3cc(C(=O)O)c(=O)n1c23 [Example 1.2, (S)-10-((S)-3-aminopyrrolidin-1-yl)-9-fluoro-3-methyl-5-oxo-2,3-dihydro-5H-[1,4]oxazino[2,3,4-ij]quinoline-6-carboxylic acid] | 1 to 32 (≈ 2.88 to 92.1 µM) | 1 to 32 (≈ 2.88 to 92.1 µM) | > 32 | 1 to 32 (≈ 2.88 to 92.1 µM) | 1 to 32 (≈ 2.88 to 92.1 µM) | 1 to 32 (≈ 2.88 to 92.1 µM) | > 32 |  |
| C[C@H]1COc2c(N3CC4CC4(N)C3)c(F)cc3cc(C(=O)O)c(=O)n1c23 (stereo partly drawn) [Example 1.3, (3S)-10-(1-amino-3-azabicyclo[3.1.0]hexan-3-yl)-9-fluoro-3-methyl-5-oxo-2,3-dihydro-5H-[1,4]oxazino[2,3,4-ij]quinoline-6-carboxylic acid] | < 1 | 1 to 32 (≈ 2.78 to 89 µM) | 1 to 32 (≈ 2.78 to 89 µM) | > 32 | 1 to 32 (≈ 2.78 to 89 µM) | 1 to 32 (≈ 2.78 to 89 µM) | 1 to 32 (≈ 2.78 to 89 µM) |  |
| C[C@H]1COc2c(N3CCN(C)CC3)c(F)cc3cc(C(=O)O)c(=O)n1c23 [Example 1.4, (S)-9-fluoro-3-methyl-10-(4-methylpiperazin-1-yl)-5-oxo-2,3-dihydro-5H-[1,4]oxazino[2,3,4-ij]quinoline-6-carboxylic acid] | 1 to 32 (≈ 2.77 to 88.6 µM) | 1 to 32 (≈ 2.77 to 88.6 µM) | > 32 | > 32 | > 32 | > 32 | > 32 |  |
| C[C@H](N)[C@@H]1CCN(c2c(F)cc3cc(C(=O)O)c(=O)n4c3c2OC[C@@H]4C)C1 [Example 1.5, (S)-10-((R)-3-((S)-1-aminoethyl)pyrrolidin-1-yl)-9-fluoro-3-methyl-5-oxo-2,3-dihydro-5H-[1,4]oxazino[2,3,4-ij]quinoline-6-carboxylic acid] | < 1 | 1 to 32 (≈ 2.66 to 85.2 µM) | 1 to 32 (≈ 2.66 to 85.2 µM) | 1 to 32 (≈ 2.66 to 85.2 µM) | < 1 | < 1 | < 1 |  |
| C[C@H]1COc2c(N3CC[C@H](O)C3)c(F)cc3cc(C(=O)O)c(=O)n1c23 [Example 1.6, (S)-9-fluoro-10-((S)-3-hydroxypyrrolidin-1-yl)-3-methyl-5-oxo-2,3-dihydro-5H-[1,4]oxazino[2,3,4-ij]quinoline-6-carboxylic acid] | < 1 | 1 to 32 (≈ 2.87 to 91.9 µM) | > 32 | > 32 | 1 to 32 (≈ 2.87 to 91.9 µM) | 1 to 32 (≈ 2.87 to 91.9 µM) | 1 to 32 (≈ 2.87 to 91.9 µM) |  |
| C[C@H]1COc2c(N3CCC(=C(Cl)CO)CC3)c(F)cc3cc(C(=O)O)c(=O)n1c23 [Example 1.8, (S)-10-(4-(1-chloro-2-hydroxyethylidene)piperidin-1-yl)-9-fluoro-3-methyl-5-oxo-2,3-dihydro-5H-[1,4]oxazino[2,3,4-ij]quinoline-6-carboxylic acid] | < 1 | > 32 | 1 to 32 (≈ 2.36 to 75.7 µM) | > 32 | < 1 | < 1 | < 1 |  |
| C[C@H]1COc2c(N3CCC(C4(N)COC4)C3)c(F)cc3cc(C(=O)O)c(=O)n1c23 (stereo partly drawn) [Example 1.9, (3S)-10-(3-(3-aminooxetan-3-yl)pyrrolidin-1-yl)-9-fluoro-3-methyl-5-oxo-2,3-dihydro-5H-[1,4]oxazino[2,3,4-ij]quinoline-6-carboxylic acid] | 1 to 32 (≈ 2.48 to 79.3 µM) | > 32 | > 32 | > 32 | 1 to 32 (≈ 2.48 to 79.3 µM) | > 32 | > 32 |  |
